The record followed here is patent US7420001B2 (Wyeth, priority 2003, dated 2008).

The target in one assay is T1, MMP-2 (Homo sapiens, UniProt P08253).
T1 construct: purchased Oncogene Research Products (Calbiochem) PF023
T1 sequence (P08253 110-660): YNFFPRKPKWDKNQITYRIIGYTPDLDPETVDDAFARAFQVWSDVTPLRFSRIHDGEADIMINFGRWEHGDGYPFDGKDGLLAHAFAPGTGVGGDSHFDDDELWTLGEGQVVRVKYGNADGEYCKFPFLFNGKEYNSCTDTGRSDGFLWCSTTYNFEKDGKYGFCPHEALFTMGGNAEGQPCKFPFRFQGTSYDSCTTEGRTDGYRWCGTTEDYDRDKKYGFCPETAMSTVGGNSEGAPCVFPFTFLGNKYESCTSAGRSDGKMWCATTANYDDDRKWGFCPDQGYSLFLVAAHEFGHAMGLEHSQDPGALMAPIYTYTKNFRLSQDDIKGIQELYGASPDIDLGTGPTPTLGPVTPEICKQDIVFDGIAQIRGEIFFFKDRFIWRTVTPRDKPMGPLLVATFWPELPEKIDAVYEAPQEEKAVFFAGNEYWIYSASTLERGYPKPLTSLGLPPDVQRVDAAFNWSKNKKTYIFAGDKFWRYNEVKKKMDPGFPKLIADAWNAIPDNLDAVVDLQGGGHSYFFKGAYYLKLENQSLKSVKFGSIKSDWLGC
Put plainly: In-vitro fluorescence assay of MMP-2 activity. The conditions noted are these: recombinant human MMP-2; read-out: MMP-2 IC50. The format is biochemical.

The target of a further assay is T2, MMP-7 (Homo sapiens, UniProt P09237).
T2 construct: Active, recombinant human MMP-7 was purchased from Calbiochem (catalog #444270; expressed in E. coli, 19 kDa); purchased Calbiochem 444270; host or cells: E. coli
T2 sequence (P09237 95-267): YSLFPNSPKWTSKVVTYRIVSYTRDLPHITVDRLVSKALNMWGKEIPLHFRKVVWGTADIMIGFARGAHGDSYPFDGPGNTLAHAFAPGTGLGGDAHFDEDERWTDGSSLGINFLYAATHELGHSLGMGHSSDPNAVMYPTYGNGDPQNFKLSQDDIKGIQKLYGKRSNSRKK
Put plainly: MMP-7 activity assay. The following applies: recombinant human MMP-7. The format is biochemical.

For a further assay, the target named is T3, MMP-9 (Homo sapiens, UniProt P14780).
T3 construct: Active, recombinant human MMP-9 (83 kDa) was purchased from Calbiochem (catalog #PF024); purchased Calbiochem PF024
T3 sequence (P14780 107-707 limits assumed): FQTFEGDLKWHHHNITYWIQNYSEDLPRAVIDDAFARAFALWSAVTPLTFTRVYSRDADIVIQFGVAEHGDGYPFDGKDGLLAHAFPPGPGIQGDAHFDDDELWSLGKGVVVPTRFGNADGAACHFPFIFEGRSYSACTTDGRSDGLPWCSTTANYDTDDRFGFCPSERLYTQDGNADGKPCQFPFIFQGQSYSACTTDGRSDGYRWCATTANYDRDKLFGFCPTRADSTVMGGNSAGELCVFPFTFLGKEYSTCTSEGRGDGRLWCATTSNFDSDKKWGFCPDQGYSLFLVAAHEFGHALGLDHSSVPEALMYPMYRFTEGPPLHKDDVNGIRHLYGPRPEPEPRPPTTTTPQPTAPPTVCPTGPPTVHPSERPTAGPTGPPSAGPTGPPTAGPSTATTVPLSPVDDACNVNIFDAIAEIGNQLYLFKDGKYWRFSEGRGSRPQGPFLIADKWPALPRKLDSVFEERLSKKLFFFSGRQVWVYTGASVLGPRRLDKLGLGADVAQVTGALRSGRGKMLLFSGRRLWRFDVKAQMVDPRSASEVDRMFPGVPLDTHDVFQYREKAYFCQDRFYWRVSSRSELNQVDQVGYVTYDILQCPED
Put plainly: MMP-9 activity assay. The format is biochemical. The following applies: recombinant human MMP-9.

The target in the next assay is T4, MMP-12 (Homo sapiens, UniProt P39900).
T4 construct: made in house
T4 sequence (P39900 106-280 limits assumed): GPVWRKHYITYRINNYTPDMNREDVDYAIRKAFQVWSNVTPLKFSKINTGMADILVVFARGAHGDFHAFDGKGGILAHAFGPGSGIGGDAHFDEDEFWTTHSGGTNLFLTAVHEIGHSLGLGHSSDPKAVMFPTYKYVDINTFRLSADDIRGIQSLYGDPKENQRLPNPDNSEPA
Briefly: In vitro fluorescence assay of MMP-12 activity. The format is biochemical. The following applies: recombinant human MMP-12.

For the next assay, the target named is T5, MMP-13 (Homo sapiens, UniProt P45452).
T5 construct: made in house
Put plainly: In-vitro fluorescence assay of MMP-13 activity. The format is biochemical. The conditions noted are these: recombinant human catalytic domain of MMP-13; read-out: MMP-13 IC50.

A further assay deals with T6, MMP-14 (Homo sapiens, UniProt P50281).
T6 construct: 20 kDa; purchased Chemicon International, Inc. CC 1041
Put plainly: In-vitro fluorescence assay of MMP-14 activity. The format is biochemical. The conditions noted are these: recombinant human catalytic domain of MMP-14.

In the next assay the target is T7, Aggrecanase-1 (Homo sapiens, UniProt O75173).
T7 sequence (O75173 213-837): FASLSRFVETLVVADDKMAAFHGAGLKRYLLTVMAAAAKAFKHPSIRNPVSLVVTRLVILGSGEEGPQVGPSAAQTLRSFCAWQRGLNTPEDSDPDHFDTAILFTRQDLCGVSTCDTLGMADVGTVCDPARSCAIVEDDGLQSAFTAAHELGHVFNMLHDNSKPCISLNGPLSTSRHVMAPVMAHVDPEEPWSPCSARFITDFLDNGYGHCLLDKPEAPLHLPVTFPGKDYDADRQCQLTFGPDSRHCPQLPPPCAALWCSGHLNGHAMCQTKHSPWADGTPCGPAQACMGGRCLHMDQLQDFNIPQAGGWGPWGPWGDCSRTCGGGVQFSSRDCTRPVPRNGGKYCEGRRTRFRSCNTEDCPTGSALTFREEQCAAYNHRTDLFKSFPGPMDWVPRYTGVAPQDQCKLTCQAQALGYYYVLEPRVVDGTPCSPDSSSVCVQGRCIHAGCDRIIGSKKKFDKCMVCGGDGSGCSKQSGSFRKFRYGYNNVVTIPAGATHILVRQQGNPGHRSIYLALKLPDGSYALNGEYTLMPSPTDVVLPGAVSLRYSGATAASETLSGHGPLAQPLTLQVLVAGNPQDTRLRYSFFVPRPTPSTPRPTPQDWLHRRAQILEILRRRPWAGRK
Put plainly: Aggrecanase-1 FRET assay. The conditions noted are these: rAgg1, WAAG-3R substrate; read-out: AGG-1 IC50. The format is biochemical. The procedure:
h. Aggrecanase-1 FRET Assay:
The following protocol was used: • Fluorimeter was started and temperature set to 30° C., about 30 min before setting up the assay. The following reagents are used: • Buffer: 50 mM HEPES, pH 7.5, 100 mM NaCl, 5 mM CaCl2, 0.1% CHAPS, 5% glycerol. • rAgg1: 5 μg/ml (final concentration in the assay): • Substrate: WAAG-3R (MWT=1645.8, Anaspec, stored at 4° C.). Make a stock at 2 mg/ml in 100% DMSO. Measure the absorbance at 354 nm (ε=18172 M^−1 cm^−1) to determine the exact concentration. Dilute to 62.5 μM in buffer. Store unused 100% DMSO stock at −80° C. Final concentration of substrate in the assay is 25 μM. […] Make up inhibitors at 10× starting concentration in 100% DMSO. Perform serial dilutions (in duplicate) across the nunc plate in 100% DMSO; • Dilution plates: Nunc, polypropylene low binding (Nalgene) • Assay plate: Fluoronunc (Nalgene) • Fluorimeter: GeminiXS (Molecular Devices).; • The assay is performed as follows: The plates are set up so that the final column (12) is used for controls. Total reaction volume is 100 μl. Each compound is assayed in duplicate, so 4 compounds are screened per plate. • 1) Add buffer to the entire 96-well plate (30 ρl/well). • 2) Dilute rAgg1 to 25 μg/ml buffer just prior to addition on the plate. Add 20 μl/well to all wells. Mix 6 times. • 3) Add 10 μl/well of 10× inhibitors from the working plate, except column 12. Mix 6 times. […] Mix 6 times.
The reaction is monitored for 30-40 min at 30° C. λex: 340 nm and λ em: 420 nm). The fluorescence is linear during this time and the slope of the line (Vmax/sec) represents the initial reaction rate, ν. The maximal rate of cleavage of substrate is determined in the absence of inhibitor. The percent inhibition of activity in the presence of inhibitor is calculated as follows:
[formula] The IC50 was obtained by fitting the initial rate, ν, or % inhibition at each concentration of inhibitor to the following equation in Excel. y=(a−d)/(1+C/IC50)^n)+d This model describes a sigmoidal curve with an adjustable baseline, […]. y is the % inhibition or initial rate of reaction, C is the concentration of inhibitor under test. a is the limiting response as C approaches zero. […] The sign of n is positive when the response increases with increasing dose and is negative when the response decreases with increasing dose (inhibition).

The target of the next assay is T8, MMP-1 (Homo sapiens, UniProt P03956).
T8 sequence (P03956 100-269 limits assumed): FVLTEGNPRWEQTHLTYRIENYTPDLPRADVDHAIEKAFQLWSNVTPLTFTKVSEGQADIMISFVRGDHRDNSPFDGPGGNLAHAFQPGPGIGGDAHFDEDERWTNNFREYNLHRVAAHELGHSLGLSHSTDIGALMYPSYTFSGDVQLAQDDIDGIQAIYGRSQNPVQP

Experimental for MMP-12: A continuous, assay was used in which the substrate is a synthetic peptide containing a fluorescent group (7-methoxycoumarin; Mca) which is quenched by energy transfer to a 2,4-dinitrophenyl group. […] The concentration of the substrate stock was spectrophotometrically determined using the extinction coefficient at 410 nm of 7500 M^−1cm^−1. The assay buffer (pH 7.4) consisted of 50 mM Hepes, 100 mM NaCl, 5 mM CaCl2, and 0.005% Brij-35. […] The plates were then incubated at room temperature for 30 minutes. The enzymatic reactions were initiated by adding substrate to a final concentration of 20 μM and they were mixed by pipetting up and down. The final DMSO concentration in the assay was 10% and the final, total assay volume was 200 μl.
Experimental for MMP-13: A continuous assay was used in which the substrate is a synthetic peptide containing a fluorescent group (7-methoxycoumarin; Mca) which is quenched by energy transfer to a 2,4-dinitrophenyl group. […] The substrate used was Mca-PQGL-(3-[2,4-dinitrophenyl]-L-2,3-diaminopropionyl)-AR-OH (denoted as Wammp-5, custom synthesized by AnaSpec, Inc.). The assay buffer consisted of 50 mM Hepes (pH 7.4), 100 mM NaCl, 5 mM CaCl2, and 0.005% Brij-35. Each well of black polystyrene 96-well plates contained a 200 μL reaction mixture consisting of assay buffer, purified MMP (final concentration of 0.5 nM, prepared by diluting with the assay buffer), and varied concentrations of inhibitor (prepared by serially diluting a given inhibitor in DMSO in 96-well polypropylene plate). […] The enzymatic reactions were initiated by adding the substrate to a final concentration of 20 μM, and mixing 10 times with a pipette. The final DMSO concentration in the assay was 6.0%.
(§1) Plots of the inhibitor concentration vs. the percent inhibition were fit to the following equation: y=(a−d)/[1+(x/c)^b]+d, a general sigmoidal curve with Hill slope, a to d. x is the inhibitor concentration under test. y is the percent inhibition. a is the limiting response as x approaches zero. As x increases without bound, y tends toward its limit d. c is the inflection point (IC50) for the curve. That is, y is halfway between the lower and upper asymptotes when x=c. b is the slope factor or Hill coefficient.
Experimental for MMP-14: A continuous assay was used in which the substrate is a synthetic peptide containing a fluorescent group (7-methoxycoumarin; Mca) which is quenched by energy transfer to a 2,4-dinitrophenyl group. […] The substrate used was Mca-PQGL-(3-[2,4-dinitrophenyl]-L-2,3-diaminopropionyl)-AR-OH (denoted as Wammp-5, custom synthesized by AnaSpec, Inc.). The assay buffer consisted of 50 mM Hepes (pH 7.4), 100 mM NaCl, 5 mM CaCl2, and 0.005% Brij-35. […] The enzymatic reactions were initiated by adding the substrate to a final concentration of 20 μM, and mixing 10 times with a pipette. The final DMSO concentration in the assay was 6.0%.
as §1
Experimental for MMP-7: (§2) A continuous assay was used in which the substrate is a synthetic peptide containing a fluorescent group (7-methoxycoumarin; Mca) that is quenched by energy transfer to a 2,4-dinitrophenyl group. […] The concentration of the substrate stock was spectrophotometrically determined using the extinction coefficient at 410 nm of 7500 M^−1cm^−1. The assay buffer (pH 7.4) consisted of 50 mM Hepes, 100 mM NaCl, 5 mM CaCl2, and 0.005% Brij-35. Each well of black polystyrene 96-well plates contained a reaction consisting of assay buffer, purified MMP (final concentration of 1.0 nM, prepared by dilution with assay buffer), and varied concentrations of inhibitor (prepared by serial dilution in DMSO in 96-well polypropylene plates). The plates were then incubated at room temperature for 30 minutes. […] The final DMSO concentration in the assay was 10% and the final, total assay volume was 200 μl. […] Plots of the inhibitor concentration vs. the initial cleavage rate were fit to the following equation in order to determine IC50 values: y=Vmax*(1−(x^n/(K^n+x^n))), whereby x=inhibitor concentration, y=initial rate, Vmax=initial rate in the absence of inhibitor, n=slope factor, and K=IC50 for the inhibition curve.
Experimental for MMP-9: as §2
Active, recombinant human MMP-9 (83 kDa) was purchased from Calbiochem (catalog #PF024).

For `COc1c(Br)ccc2oc(COc3ccc(-c4ccc(S(=O)(=O)N[C@@H](C(=O)O)C(C)C)cc4)cc3)c(C)c12` [Example 136, D-2-[4′-(5-Bromo-4-methoxy-3-methyl-benzofuran-2-ylmethoxy)-biphenyl-4-sulfonylamino]-3-methyl-butyricacid], the IC50 on MMP-2 is 135 nM; on MMP-7, 1100 nM; at MMP-9 it was greater than 7000 nM; at MMP-12, 20 nM; on MMP-13, 1.8 nM; on MMP-14, 5000 nM. In addition, the results for the IC50 at Aggrecanase-1 and against MMP-1 were 430 nM and 400000 nM, respectively.

In general, IC50 refers to the point on the concentration scale where inhibition reaches its midpoint.
